Measured values as given in patent US20030091975A1, “Multiple determinants for metabolic phenotypes” (priority 2001, published 2003).
Read-outs that look alike come from different tables or passages of the source. Marks after values point to notes of the source that are not given here.

Experiments:
[1] = cited from earlier work
[2] = cited from earlier work; remark: listed apart in the source
μ-opiod receptor = μ-opiod receptor (Homo sapiens, UniProt P35372); conditions: relative to morphine; cited from earlier work
μ-opiod receptor, sequence (P35372 whole entry): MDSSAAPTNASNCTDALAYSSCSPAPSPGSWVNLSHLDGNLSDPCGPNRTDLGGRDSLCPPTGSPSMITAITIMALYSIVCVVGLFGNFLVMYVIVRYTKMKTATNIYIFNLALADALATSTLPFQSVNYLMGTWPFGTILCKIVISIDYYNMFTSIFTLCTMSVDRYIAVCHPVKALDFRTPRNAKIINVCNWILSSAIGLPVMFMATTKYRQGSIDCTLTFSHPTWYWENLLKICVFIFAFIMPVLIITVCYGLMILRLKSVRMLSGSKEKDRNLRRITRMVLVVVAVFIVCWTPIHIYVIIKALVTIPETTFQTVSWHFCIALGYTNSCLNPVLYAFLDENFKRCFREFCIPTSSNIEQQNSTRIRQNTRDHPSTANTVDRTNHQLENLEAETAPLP

[3] = 2 mg/kg, cited from earlier work
AAMU-Ab = assay: Competitive antigen ELISA, cross-reactivity of AAMU-Ab; type: binding, rabbit; conditions: 0 = absence of inhibition or inhibition no higher than 40% at the highest concentration tested (5×10^−3 M)
Method: (§1) Buffers and water without additives are filtered through millipore filters and kept for 1 week. BSA, antibodies, Tween™ 20 and horse radish peroxidase conjugates are added to these buffers and water just prior to use. Urine samples are usually collected 4 hours after drinking a cup of coffee (instant or brewed with approximately 100 mg of caffeine per cup) and stored at −80° C. The urine samples are diluted 10 times with sodium phosphate buffer (620 mosm, pH 7.50) and are subsequently diluted with water to give concentrations of AAMU and 1X no higher than 3×10^−6 M in the ELISA. All the pipettings are done with an eight-channel pipette, except those of the antibody and sample solutions. Starting with the last well, 100 μL of a carbonate buffer (100 mM, pH 9.6) containing 2.5 μg mL-1 antibodies are added to each well. After 90 min. at room temperature, the wells are washed three times with […] of TPB: isotonic sodium phosphate buffer (310 mosm, pH 7.50) containing 0.05% Tween™ 20.
(§2) After the initial wash, unoccupied sites are blocked by incubation for 90 min. at room temperature with 100 μL TBP containing 3% BSA. The wells are washed four times with 100 μL TPB. […] The microplate is gently shaken with an orbital shaker at room temperature for 3-4 hours. The wells are washed three times with 100 μL TPB containing 1% BSA and three times with water containing 0.05% Tween ™ 20. To the washed plate is added 150 μL of a substrate buffer composed of citric acid (25 mM) and sodium phosphate dibasic buffer (50 mM, pH 5.0) containing 0.06% hydrogen peroxide and 0.04% o-phenylenediamine hydrochloride.
(§3) Buffers and water without additives were filtered through millipore filters and kept for 1 week. BSA, antibodies, Tween ™ 20 and horse radish peroxidase conjugates were added to these buffers and water just prior to use. Urine samples were usually collected 4 hours after drinking a cup of coffee (instant or brewed with approximately 100 mg of caffeine per cup) and stored at 80° C. They were diluted 10 times with sodium phosphate buffer (620 mosm, pH 7.50) and were subsequently diluted with water to give concentrations of AAMU and 1X no higher than 3×10^−6 M in the ELISA. All the pipettings were done with an eight-channel pipette, except those of the antibody and sample solutions. Starting with the last well, 100 μL of a carbonate buffer (100 mM, pH 9.6) containing 2.5 μg mL^−1 antibodies was pipetted. After 90 min. at room temperature, the wells were washed three times with 100 μL of TPB: isotonic sodium phosphate buffer (310 mosm, pH 7.50) containing 0.05% Tween™ 20.
(§4) After the initial wash, unoccupied sites were blocked by incubation for 90 min. at room temperature with 100 μL TBP containing 3% BSA. The wells were washed four times with 100 μL TPB. […] The microplate was gently shaken with an orbital shaker at room temperature for 3-4 hours. The wells were washed three times with 100 μL with TPB containing 1% BSA and three times with water containing 0.05% Tween™ 20. To the washed plate was added 150 μL of a substrate buffer composed of citric acid (25 mM) and sodium phosphate dibasic buffer (50 mM, pH 5.0) containing 0.06% hydrogen peroxide and 0.04% o-phenylenediamine hydrochloride. After 20 min. at room temperature with shaking, the reaction was stopped with 50 μL of 2.5 N HCl.
(§5) The cross reactivities of AAMU-Ab and 1X-Ab were tested using a wide variety of caffeine metabolites and structural analogs (Table 5 below).

1X-Ab = assay: Competitive antigen ELISA, cross-reactivity of 1X-Ab; type: binding, rabbit; conditions: 0 = absence of inhibition or inhibition no higher than 40% at the highest concentration tested (5×10^−3 M)
Method: as §1, §2, §3, §4, §5

Caffeine-Ab = assay: Competitive antigen ELISA, antibody specificity of caffeine-Ab; type: binding, rabbit; conditions: ideal antibody specificity result hypothesized; 0 = no inhibition or no higher than 40% at 5×10^−3 M
Method: (§6) BSA, antibodies, Tween™ 20 and horse radish peroxidase are added to buffers and water just prior to use. Urine samples are usually collected four hours after drinking a cup of coffee (instant or brewed with approximately 100 mg of caffeine per cup) and stored at −20° C. as 1-mL aliquots in 1.5-mL microtubes. For the ELISA, the urine samples are diluted with isotonic sodium phosphate buffer, pH 7.5 (310 mosM) to give concentrations of caffeine, 1.7-DMX and 1,7-DMU no higher than 3×10^−6 M in the microtiter plate wells. Wells of the ELISA plate are washed with a Nunc-Immuno wash 12 washer. Sixteen milliliters of a solution of 6.6 μg ml^−1 of isolated IgG antibodies is prepared in a 100 mM sodium carbonate buffer, pH 9.6, and 150 μL of this solution is pipetted in each well of a microtiter plate using a eight channel pipet (Brinkmann Transferpette™-8 50-200 μL) and 200 μL Flex tips from Brinkmann). After coating the wells with antibodies at 4° C. for 20 hours, the wells are washed 3 times with the isotonic sodium phosphate buffer containing 0.05% Tween™ 20 (IPBT) and properly drained by inverting the plate and absorbing the liquid on to a piece of paper towel. Thirty milliliters of a solution of a IPBT solution containing 1% BSA is prepared and 150 μL of this solution is pipetted in each well using a eight channel pipet (Brinkmann Transferpette ™-8 50-200 μL) and 200 μL yellow tips (Sarstedt yellow tips for P200 Gilson Pipetman). After 3 hours at room temperature, the wells are washed 3 times with IPBT solution and drained. Samples of 400 μL for determination of caffeine, 1,7-DMX and 1,7-DMU are prepared in 1.5-mL microtubes using Sarstedt yellow tips and a P200 Gilson Pipetman. Then, 200 μL of each sample are pipetted in duplicate in a Falcon 96-well microtest tissue culture plate according to the pattern shown in FIG. 22, using Sarstedt yellow tips and a P200 Gilson Pipetman. Using an eight channel pipet (Brinkmann Transferpette™-8 50-200 μL) and changing the tips of the eight channel pipet (200μL Flex tips from Brinkmann) at each row, 150 μL of samples are transferred in the corresponding wells of a 96-well ELISA microtiter plate coated with antibodies. After the addition of the samples, the microtiter plates are covered and left standing at room temperature for 2 h. While the plate is left standing the substrate buffer without the hydrogen peroxide and o-phenylenediamine hydrochloride is prepared (25 mM citric acid and 50 mM sodium phosphate dibasic buffer, pH 5.0). The microtiter plate is washed 3 times with the IPBT solution and 3 times with a 0.05% Tween™ 20 solution and drained. Then, 50 μL of hydrogen peroxide and 40 mg of o-phenylenediamine are added to the substrate buffer. One hundred fifty microliters (150 μL) of the substrate buffer solution is then added to each well using a eight channel pipet (Brinkmann Transferpette™-8 50-200 μL) and 200 μL Flex tips (Brinkmann). The microtiter plate is covered and shaken for 25-30 min at room temperature and the enzymatic reaction is stopped by adding 50 μL/well of a 2.5 N HCl solution using an eight channel pipet (Brinkmann Transferpette™-8 50-200 μL) and 200L Flex tips (Brinkmann).

1,7-DMX-Ab = assay: Competitive antigen ELISA, antibody specificity of 1,7-DMX-Ab; type: binding, rabbit; conditions: ideal antibody specificity result hypothesized; 0 = no inhibition or no higher than 40% at 5×10^−3 M
Method: as §6

1,7-DMU-Ab = assay: Competitive antigen ELISA, antibody specificity of 1,7-DMU-Ab; type: binding, rabbit; conditions: ideal antibody specificity result hypothesized; 0 = no inhibition or no higher than 40% at 5×10^−3 M
Method: as §6

[4] = cited from earlier work; remark: listed apart in the source

| SMILES | % Cross-Reaction AAMU-Ab (AAMU-Ab) | % Cross-Reaction 1X-Ab (1X-Ab) [%] | % Cross-reaction Caffeine-Ab (Caffeine-Ab) [%] | % Cross-reaction 1,7-DMX-Ab (1,7-DMX-Ab) [%] | % Cross-reaction 1,7-DMU-Ab (1,7-DMU-Ab) [%] | other results |
| --- | --- | --- | --- | --- | --- | --- |
| CN(C)CCN1C(=O)c2cccc3cc(N)cc(c23)C1=O [Amonafide] | – | – | – | – | – | deaths ([1]; 300 mg/m^2, extremely fast acetylators): two women (both oriental) died from severe myelosuppression; response rate ([1]; individuals considered to be properly dosed): 30-50%; overall response rate ([1]; phase II trial, standard 300 mg/m^2 dose for all individuals): 18% |
| COc1ccc2c(c1)[C@]13CCCC[C@@H]1[C@H](C2)N(C)CC3 [Dextromethorphan] | – | – | – | – | – | mean performance +/−SE ([2]; extensive metabolizers (EMs)): 95+/−0.5%; mean performance +/−SE ([2]; poor metabolizers (PMs), p<0.05): 86+/−6% |
| COc1cccc(C2(O)CCCCC2CN(C)C)c1 (centres unmarked) [Tramadol] | – | – | – | – | – | affinity for the μ-opiod receptor, factor weaker than morphine (μ-opiod receptor): ~6000; side effects vs placebo ([3]; extensive metabolizers): caused side effects significantly more frequently than placebo; analgesic effect ([3]; extensive vs poor metabolizers): better analgesic in extensive metabolizers as compared to poor metabolizers |
| O=c1[nH]c(=O)c2[nH]c(=O)[nH]c2[nH]1 [Uric acid] | 0% | 0 | 0 | 0 | 0 | – |
| O=c1[nH]c(=O)c2[nH]cnc2[nH]1 [Xanthine] | 0^a % | 0 | 0 | 0 | 0 | – |
| Nc1ccc(S(=O)(=O)c2ccc(N)cc2)cc1 [dapsone] | – | – | – | – | – | adverse reactions to dapsone ([4]; fast acetylators): 17%; adverse reactions to dapsone ([4]; slow acetylators): 46% |
